Measured values published in patent US8796256B2 (Janssen Pharmaceutica NV, priority 2010, dated 2014).

Molecular target: T1, ERR1 (also known as ERR-α or ERR-1) (Homo sapiens, UniProt P11474)
T1 sequence (P11474 193-421 limits assumed): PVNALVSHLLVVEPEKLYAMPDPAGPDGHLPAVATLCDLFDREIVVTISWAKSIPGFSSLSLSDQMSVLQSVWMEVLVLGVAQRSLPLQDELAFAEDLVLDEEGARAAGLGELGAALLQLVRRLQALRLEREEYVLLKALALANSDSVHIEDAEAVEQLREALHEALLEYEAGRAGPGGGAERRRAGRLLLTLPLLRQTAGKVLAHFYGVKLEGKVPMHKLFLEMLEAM
Assay: TR-FRET assay (disruption of co-activator peptide binding to ERR1 LBD)
Format: biochemical
Settings: 6 nM 6His-ERR1LBD, 6 nM GST-SRC-2 peptide; average of 3 independent experiments
How it was run: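 Homogeneous TR-FRET measuring displacement of GST-hSRC2 co-activator peptide (6 nM) from His-tagged ERR1 LBD (6 nM), detected with α-GST Eu cryptate (30 nM) and α-His-XL665 (7.5 nM). Buffer 25 mM Tris pH 8, 2.5 mM Hepes, 20 mM KCl, 1 mM DTT, 0.05 mg/mL delipidated BSA; equilibration 4-18 h at 25° C. Hyperbolic dose-response fit, mean of 3 experiments.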

EC50	Structure (SMILES)
16 nM	Cc1nc(CN2C(=O)S/C(=C\c3ccc4c(c3)nnn4Cc3ccc(Cl)cc3C(F)(F)F)C2=O)n[nH]1 [Compound 263, (5Z)-5-({1-[4-Chloro-2-(trifluoromethyl)benzyl]-1H-benzotriazol-5-yl}methylidene)-3-[(5-methyl-1H-1,2,4-triazol-3-yl)methyl]-1,3-thiazolidine-2,4-dione]
17 nM	O=C1S/C(=C\c2ccc3c(cnn3Cc3ccc(Cl)cc3C(F)(F)F)c2)C(=O)N1N1CCN(CCO)CC1 [Compound 354, (5Z)-5-({1-[4-Chloro-2-(trifluoromethyl)benzyl]-1H-indazol-5-yl}methylidene)-3-[4-(2-hydroxyethyl)piperazin-1-yl]-1,3-thiazolidine-2,4-dione]
112 nM	CN(CCN1C(=O)S/C(=C\c2ccc3c(cnn3Cc3ccc(Cl)cc3C(F)(F)F)c2)C1=O)S(=O)(=O)N1CCCC1 [Compound 396, N-{2-[(5Z)-5-({1-[4-Chloro-2-(trifluoromethyl)benzyl]-1H-indazol-5-yl}methylidene)-2,4-dioxo-1,3-thiazolidin-3-yl]ethyl}-N-methylpyrrolidine-1-sulfonamide]
9 nM	Cc1nn(Cc2ccc(Cl)cc2C(F)(F)F)c2ccc(/C=C3\SC(=O)N(CCN4CCCC4)C3=O)cc12 [Compound 41, (5Z)-5-({1-[4-Chloro-2-(trifluoromethyl)benzyl]-3-methyl-1H-indazol-5-yl}methylidene)-3-(2-pyrrolidin-1-ylethyl)-1,3-thiazolidine-2,4-dione]
95 nM	COc1nn(Cc2ccc(Cl)cc2C(F)(F)F)c2ccc(/C=C3\SC(=O)N(C4CCNCC4)C3=O)cc12 [Compound 29, (5Z)-5-({1-[4-Chloro-2-(trifluoromethyl)benzyl]-3-methoxy-1H-indazol-5-yl}methylidene)-3-piperidin-4-yl-1,3-thiazolidine-2,4-dione]

Second part, the molecule before the results:

Structure (SMILES)	EC50
O=C1S/C(=C\c2ccc3c(cnn3Cc3ccc(Cl)cc3C(F)(F)F)c2)C(=O)N1[C@@H]1CNC[C@H]1F (relative stereo) [Compound 317, (5Z)-5-({1-[4-Chloro-2-(trifluoromethyl)benzyl]-1H-indazol-5-yl}methylidene)-3-[trans-4-fluoropyrrolidin-3-yl]-1,3-thiazolidine-2,4-dione]	12 nM
O=C1S/C(=C\c2ccc3c(cnn3Cc3ccc(C(F)(F)F)cc3C(F)(F)F)c2)C(=O)N1C[C@@H]1CNCCO1 [Compound 195, (5Z)-5-({1-[2,4-Bis(trifluoromethyl)benzyl]-1H-indazol-5-yl}methylidene)-3-[(2S)-morpholin-2-ylmethyl]-1,3-thiazolidine-2,4-dione]	61 nM
N=C(N)NC(=O)CN1C(=O)S/C(=C\c2ccc3c(cnn3Cc3ccc(Cl)cc3C(F)(F)F)c2)C1=O [Compound 56, N-Carbamimidoyl-2-[(5Z)-5-({1-[4-chloro-2-(trifluoromethyl)benzyl]-1H-indazol-5-yl}methylidene)-2,4-dioxo-1,3-thiazolidin-3-yl]acetamide]	22 nM
COc1ccc(Cn2ncc3cc(/C=C4\SC(=O)N(CCN(C)C)C4=O)ccc32)c(C(F)(F)F)c1 [Compound 9, (5Z)-3-[2-(Dimethylamino)ethyl]-5-[(1-{[4-(methyloxy)-2-(trifluoromethyl)phenyl]-methyl}-1H-indazol-5-yl)methylidene]-1,3-thiazolidine-2,4-dione]	4 nM
O=C1S/C(=C\c2ccc3c(cnn3Cc3ccc(Cl)cc3C(F)(F)F)c2)C(=O)N1CCNS(=O)(=O)c1ccccc1 [Compound 391, N-{2-[(5Z)-5-({1-[4-Chloro-2-(trifluoromethyl)benzyl]-1H-indazol-5-yl}methylidene)-2,4-dioxo-1,3-thiazolidin-3-yl]ethyl}benzenesulfonamide]	215 nM
O=C1S/C(=C\c2ccc3c(cnn3Cc3ccc(Cl)cc3C(F)(F)F)c2)C(=O)N1[C@@H]1CN2CCC1CC2 [Compound 132, (5Z)-3-[(3S)-1-Azabicyclo[2.2.2]oct-3-yl]-5-({1-[4-chloro-2-(trifluoromethyl)benzyl]-1H-indazol-5-yl}methylidene)-1,3-thiazolidine-2,4-dione]	18 nM
